pIC50: −log10 of the molar value.
Columns and labels:
[1] = system: MEIS1 mRNA expression; test: MEIS1 mRNA expression assay (Quantigene Singleplex) in MOLM14 cells; format: cell-based, human; settings: 48 hours incubation
Method: 2b) MEIS1 mRNA Expression Assay
MEIS1 mRNA expression upon treatment of compound was examined by Quantigene Singleplex assay (Thermo Fisher Scientific). This technology allows for direct quantification of mRNA targets using probes hybridizing to defined target sequences of interest and the signal is detected using a Multimode plate reader Envision (PerkinElmer). The MOLM14 cell line was used for this experiment. Cells were plated in 96-well plates at 3,750 cells/well in the presence of increasing concentrations of compounds. After incubation of 48 hours with compounds, cells were lysed in lysis buffer and incubated for 45 minutes at 55° C. Cell lysates were mixed with human MEIS specific capture probe or human RPL28 (Ribosomal Protein L28) specific probe as a normalization control, as well as blocking probes. Cell lysates were then transferred to the custom assay hybridization plate (Thermo Fisher Scientific) and incubated for 18 to 22 hours at 55° C. Subsequently, plates were washed to remove unbound materials followed by sequential addition of preamplifiers, amplifiers, and label probe. Signals (═gene counts) were measured with a Multimode plate reader Envision. IC50S were calculated by dose-response modelling using appropriate software. For all non-housekeeper genes response equal counts corrected for background and relative expression. For each sample, each test gene signal (background subtracted) was divided by the normalization gene signal (RPL28: background subtracted). Fold changes were calculated by dividing the normalized values for the treated samples by the normalized values for the DMSO treated sample. Fold changes of each target gene were used for the calculation of IC50S.

[2] = biological target: T1, menin/MLL (terbium chelate-labeled menin, FITC-MBM1 peptide) (Homo sapiens, UniProt O00255, T541A); test: Menin/MLL homogenous time-resolved fluorescence (HTRF) assay; format: binding; settings: 30 min incubation
T1 construct: Menin (a.a 1-610-6xhis tag, 2.3 mg/mL in 20 mM Hepes)
T1 sequence (O00255 with tags, fused parts or gaps T541A): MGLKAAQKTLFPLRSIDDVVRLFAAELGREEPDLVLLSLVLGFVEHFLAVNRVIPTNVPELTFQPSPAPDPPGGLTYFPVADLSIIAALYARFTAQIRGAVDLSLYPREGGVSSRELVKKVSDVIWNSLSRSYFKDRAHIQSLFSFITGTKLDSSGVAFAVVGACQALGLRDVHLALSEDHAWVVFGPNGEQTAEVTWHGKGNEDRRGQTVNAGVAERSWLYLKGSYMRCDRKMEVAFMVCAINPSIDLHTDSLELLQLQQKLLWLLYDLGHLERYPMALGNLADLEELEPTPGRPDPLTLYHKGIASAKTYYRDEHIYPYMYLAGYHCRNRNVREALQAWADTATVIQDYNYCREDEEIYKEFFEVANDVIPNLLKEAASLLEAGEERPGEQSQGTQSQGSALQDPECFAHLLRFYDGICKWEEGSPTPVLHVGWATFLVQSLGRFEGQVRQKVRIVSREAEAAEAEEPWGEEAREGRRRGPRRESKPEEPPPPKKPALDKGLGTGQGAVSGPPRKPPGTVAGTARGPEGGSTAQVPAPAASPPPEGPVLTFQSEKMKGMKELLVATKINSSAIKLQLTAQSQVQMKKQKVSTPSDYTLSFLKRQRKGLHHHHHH
Method: 1) Menin/MLL Homogenous Time-Resolved Fluorescence (HTRF) Assay
To an untreated, white 384-well microtiter plate was added 40 nL 200× test compound in DMSO and 4 μL 2× terbium chelate-labeled menin (vide infra for preparation) in assay buffer (40 mM Tris HCl, pH 7.5, 50 mM NaCl. 1 mM DTT (dithiothreitol) and 0.05% Pluronic F-127). After incubation of test compound and terbium chelate-labeled menin for 30 min at ambient temperature, 4 μL 2×FITC-MBM1 peptide (FITC-β-alanine-[…]-NH2) (“FITC” means fluorescein isothiocyanate) in assay buffer was added, the microtiter plate centrifuged at 1000 rpm for 1 min and the assay mixtures incubated for 15 min at ambient temperature. The relative amount of menin FITC-MBM1 complex present in an assay mixture is determined by measuring the homogenous time-resolved fluorescence (HTRF) of the terbium/FITC donor/acceptor fluorphore pair using an EnVision microplate reader (ex. 337 nm/terbium em. 490 nm/FITC em. 520 nm) at ambient temperature. The degree of fluorescence resonance energy transfer (the HTRF value) is expressed as the ratio of the fluorescence emission intensities of the FITC and terbium fluorophores (F^em520 nm/F^em490 nm). The final concentrations of reagents in the binding assay are […] terbium chelate-labeled menin, 75 nM FITC-MBM1 peptide and 0.5% DMSO in assay buffer. Dose-response titrations of test compounds are conducted using an 11 point, four-fold serial dilution scheme, starting typically at 10 μM.
Compound potencies were determined by first calculating % inhibition at each compound concentration according to equation 1:
% inhibition=((HC−LC)−(HTRF^compound−LC))/(HC−LC))*100 (Eqn 1)
Where LC and HC are the HTRF values of the assay in the presence or absence of a saturating concentration of a compound that competes with FITC-MBM1 for binding to menin, and HTRF^compound is the measured HTRF value in the presence of the test compound. HC and LC HTRF values represent an average of at least 10 replicates per plate.
% inhibition=Bottom+(Top−Bottom)/(1+10^((log/C50−log[cmpd])*h)) (Eqn 2)
Where Bottom and Top are the lower and upper asymptotes of the dose-response curve, respectively, IC50 is the concentration of compound that yields 50% inhibition of signal and h is the Hill coefficient.
Preparation of Terbium cryptate labeling of Menin: Menin (a.a 1-610-6xhis tag, 2.3 mg/mL in 20 mM Hepes (2-[4-(2-Hydroxyethyl)-1-piperazinyl]ethane sulfonic acid), 80 mM NaCl, 5 mM DTT (Dithiothreitol), pH 7.5) was labeled with terbium cryptate as follows. 200 μg of Menin was buffer exchanged into 1×Hepes buffer. 6.67 μM Menin was incubated with 8-fold molar excess NHS (N-hydroxysuccinimide)-terbium cryptate for 40 minutes at room temperature. Half of the labeled protein was purified away from free label by running the reaction over a NAP5 column with elution buffer (0.1M Hepes, pH 7+0.1% BSA (bovine serum albumin)). The other half was eluted with 0.1 M phosphate buffered saline (PBS), pH7. 400 μl of eluent was collected for each, aliquoted and frozen at −80° C. The final concentration of terbium-labeled Menin protein was 115 μg/mL in Hepes buffer and 85 μg/mL in PBS buffer, respectively.

Row | SMILES | pIC50 ([1]; Homo sapiens, MOLM-14, 48 h) | pIC50 [2] | pIC50 [1]
1 | CC(=O)N1CCC([C@H](C)N2CC(Cc3cn(-c4ccc(F)cc4C(=O)N(C)C(C)C)c4cncc(C)c34)C2)CC1 (single isomer, unassigned) [Compound 151] | 5.87 | 8.42 | –
2 | Cc1cncc2c1c(CC1CN(CC3CCCO3)C1)cn2-c1ccc(F)cc1C(=O)N(C)C(C)C (stereo not drawn) [Compound 288] | 7.37 | 10.23 | –
3 | Cc1cc(CN2CC(Cc3cn(-c4ccc(F)cc4C(=O)N(C)C(C)C)c4cncc(C)c34)C2)[nH]n1 [Compound 285] | ~5.88 | 8.83 | –
4 | Cc1cncc2c1c(C[C@H]1CCN(CC3CCN(C(=O)C4CC4)CC3)C1)cn2-c1ccc(F)cc1C(=O)N(C)C(C)C (single isomer, unassigned) [Compound 135] | 8.15 | ~10.25 | –
5 | CC(=O)N1CCC(C)(CN2CC[C@@H](Cc3cn(-c4ccc(F)cc4C(=O)N(CCO)C(C)C)c4cncc(C)c34)C2)CC1 [Compound 337] | 7.62 | 10.04 | –
6 | CC(=O)NCC(C1CCN(C(C)=O)CC1)N1CC[C@@H](Cc2cn(-c3ccc(F)cc3C(=O)N(C)C(C)C)c3cncc(C)c23)C1 (mixture of isomers) [Compound 225] | 6.47 | 9.20 | –
7 | COC(=O)N1CCC(CN2CC[C@@H](Cc3cn(-c4ccc(F)cc4C(=O)N(CCO)C(C)C)c4cncc(C)c34)C2)CC1 [Compound 334] | 7.92 | 9.65 | –
8 | Cc1noc(CN2CC(Cc3cn(-c4ccc(F)cc4C(=O)N(C)C(C)C)c4cncc(C)c34)C2)n1 [Compound 308] | < 6.00 | 7.22 | –
9 | CCC(CCCN1C[C@H]2CN(C(C)=O)C[C@@H]2C1)N1CC[C@@H](Cc2cn(-c3ccc(F)cc3C(=O)N(C)C(C)C)c3cncc(C)c23)C1 (mixture of isomers) [Compound 16] | 7.15 | 10.29 | –
10 | Cc1cncc2c1c(C[C@@H]1CCN(CC3CCN(C(=O)NC4CC4)CC3)C1)cn2-c1ccc(F)cc1C(=O)N(C)C(C)C [Compound 152] | 6.71 | 10.28 | –
11 | CC(=O)N1CCC(CN2CCC(Cc3cn(-c4ccc(F)cc4S(=O)(=O)C(C)C)c4cncc(C)c34)C2)CC1 (stereo not drawn) [Compound 93] | ~6.44 | 9.38 | –
12 | Cc1cncc2c1c(CC1CN(CC3CCN(C(=O)OC(C)(C)C)CC3)C1)cn2-c1ccc(F)cc1C(=O)N(C)C(C)C [Compound 62] | 7.85 | 10.07 | –
13 | CC(=O)N[C@H]1CC[C@H](CN2CCC(Cc3cn(-c4ccc(F)cc4C(=O)N(C)C(C)C)c4cncc(C)c34)C2)CC1 (single isomer, unassigned) [Compound 72] | 6.74 | 9.76 | –
14 | CC(=O)N1CCC(C)C(N2CC[C@@H](Cc3cn(-c4ccc(F)cc4C(=O)N(C)C(C)C)c4cncc(C)c34)C2)C1 (stereo partly drawn) [Compound 242] | – | 9.09 | < 6.00
15 | CC(=O)N1CCC(CN2CC[C@@H](Cc3cn(-c4ccc(F)cc4C(=O)N4[C@H](C)CC[C@H]4C)c4cncc(C)c34)C2)CC1 [Compound 354] | 7.74 | 10.40 | –
16 | Cc1ccc(CN2CC(Cc3cn(-c4ccc(F)cc4C(=O)N(C)C(C)C)c4cncc(C)c34)C2)nn1 [Compound 284] | ~5.63 | 8.38 | –

More lines, now with the values ahead:

Row | pIC50 ([1]; Homo sapiens, MOLM-14, 48 h) | pIC50 [2] | pIC50 [1] | SMILES
17 | – | 10.49 | 7.07 | Cc1cncc2c1c(CC1CNC(CC3CCOCC3)C1)cn2-c1ccc(F)cc1C(=O)N(C)C(C)C (single isomer, unassigned) [Compound 134a]
18 | ~6.16 | 8.91 | – | Cc1cncc2c1c(C[C@@H]1CCN(CC3CCOCC3)C1)cn2-c1ccc(F)cc1[S@](=N)(=O)C(C)C (single isomer, unassigned) [Compound 78a]
19 | ~5.69 | 8.58 | – | Cc1cncc2c1c(C[C@H]1CCN([C@@H](C)C3CCOCC3)C1)cn2-c1ccc(F)cc1[S@@](=N)(=O)C(C)C (single isomer, unassigned) [Compound 183b]
20 | ~6.22 | 8.89 | – | CC(=O)N1CCC(CN2CC[C@@H](Cc3cn(-c4ccc(F)cc4[S@@]4(=O)=NCCC4)c4cncc(C)c34)C2)CC1 (single isomer, unassigned) [Compound 214a]
21 | ~6.74 | 9.76 | – | COC[C@@H](C1CCCCO1)N1CC[C@@H](Cc2cn(-c3ccc(F)cc3C(=O)N(C)C(C)C)c3cncc(C)c23)C1 (single isomer, unassigned) [Compound 165a]
22 | – | ~10.44 | 7.54 | CCC([C@H]1C[C@@H](N2C[C@H]3CN(C(C)=O)C[C@@H]3C2)C1)N1CC[C@@H](Cc2cn(-c3ccc(F)cc3C(=O)N(C)C(C)C)c3cncc(Cl)c23)C1 (stereo partly drawn) [Compound 26b]
23 | 7.10 | 10.89 | – | CC[C@@H]([C@H]1C[C@H](N2C[C@H]3CN(C(C)=O)C[C@@H]3C2)C1)N1CC[C@H](Cc2cn(-c3ccc(F)cc3C(=O)N(C)C(C)C)c3cncc(Cl)c23)C1 (single isomer, unassigned) [Compound 27d]
24 | < 6.00 | 9.33 | – | CC(=O)N1CCN([C@H]2C[C@@H]([C@H](C(C)C)N3CC(Cc4cn(-c5ccc(F)cc5C(=O)N(C)C(C)C)c5cncc(C)c45)C3)C2)CC1 (single isomer, unassigned) [Compound 32b]
25 | – | 9.04 | < 6.00 | CC(=O)NC(C)CN1CCC(Cc2cn(-c3ccc(F)cc3C(=O)N(C)C(C)C)c3cncc(C)c23)C1 (single isomer, unassigned) [Compound 119a]
26 | 7.36 | ~8.14 | – | CC(=O)N1CCN(CCC[C@@H](C(C)C)N2CC[C@@H](Cc3cn(-c4ccc(F)cc4C(=O)N(C)C(C)C)c4cncc(C)c34)C2)CC1 (single isomer, unassigned) [Compound 8b]
27 | < 6.00 | 8.39 | – | CC(=O)N1CCC([C@H](C)N2CC[C@H](Cc3cn(-c4ccc(F)cc4[S@](=N)(=O)C(C)C)c4cncc(C)c34)C2)CC1 (single isomer, unassigned) [Compound 232b]
